In ChEMBL document CHEMBL4043096, “Synthesis of 6-hydroxyaurone analogues and evaluation of their α-glucosidase inhibitory and glucose consumption-promoting activity: Development of highly active 5,6-disubstituted derivatives” (Bioorg Med Chem Lett, 2017):
Calls of active or inactive are those of the source. No cut-off for these calls is given here.

How the values were obtained:
[1] = Inhibition of baker's yeast alpha-glucosidase incubated for 30 mins using p-nitrophenyl-alpha-D-glucopyranoside substrate by spectrophotometry; set-up: species or system Saccharomyces cerevisiae
[2] = tested on: HepG2; assay: Induction of glucose consumption in human HepG2 cells at 1 mM incubated for 24 hrs; assay type: functional, cell-based
[3] = tested on: HepG2; assay: Induction of glucose consumption in human HepG2 cells at 1 uM incubated for 24 hrs; assay type: functional, cell-based
[4] = tested on: Saccharomyces cerevisiae; assay: Mixed competitive inhibition of baker's yeast alpha-glucosidase incubated for 30 mins using p-nitrophenyl-alpha-D-glucopyranoside substrate by spectrophotometry based Lineweaver-Burk plot analysis
[5] = tested on: Saccharomyces cerevisiae; assay: Irreversible inhibition of baker's yeast alpha-glucosidase incubated for 30 mins using p-nitrophenyl-alpha-D-glucopyranoside substrate by spectrophotometry based Lineweaver-Burk plot analysis
[6] = tested on: Saccharomyces cerevisiae; assay: Irreversible inhibition of baker's yeast alpha-glucosidase at […] dialyzed for 24 hrs followed by compound re-treatment for 30 mins using p-nitrophenyl-alpha-D-glucopyranoside substrate

Compound	IC50 [1] [µM]	further results
COc1ccc(COc2cc3c(cc2-c2ccc(C(F)(F)F)cc2)C(=O)CO3)cc1	10.9	
CN(C)C(=N)NC(=N)N		Activity [2]: Active
COc1ccc(/C=C2\Oc3cc(O)ccc3C2=O)cc1OC	> 100	
CCOC(=O)/C=C1\Oc2cc(O)c(-c3ccc(F)cc3)cc2C1=O	11.1	
CCOC(=O)/C=C1\Oc2cc(O)c(-c3ccc(C(F)(F)F)cc3)cc2C1=O	14.3	
O=C1/C(=C/c2ccc(O)c(O)c2)Oc2cc(O)ccc21 [SULFURETIN]	67.6	
COc1cc2c(cc1-c1ccccc1)C(=O)CO2	20.1	
COc1ccc(COc2ccc3c(c2)OCC3=O)cc1	> 100	
O=C1/C(=C/c2ccc(O)cc2O)Oc2cc(O)ccc21	79.2	
C[C@H]1O[C@H](O[C@H]2[C@H](O)[C@@H](O)[C@@H](O[C@H]3[C@H](O)[C@@H](O)C(O)O[C@@H]3CO)O[C@@H]2CO)[C@H](O)[C@@H](O)[C@@H]1N[C@H]1C=C(CO)[C@@H](O)[C@H](O)[C@H]1O (stereo partly specified) [ACARBOSE]	50.3	
CCOC(=O)/C=C1\Oc2cc(OCc3ccc(OC)cc3)ccc2C1=O	33.4	
COc1cc2c(cc1-c1ccccc1)C(=O)/C(=C/c1ccccc1)O2	> 100	
O=C1/C(=C/c2ccc(O)cc2)Oc2cc(O)ccc21	76.7	
O=C1/C(=C/c2cccc(O)c2)Oc2cc(O)ccc21	> 100	
CCOC(=O)/C=C1\Oc2cc(OC)c(-c3ccc(F)cc3)cc2C1=O	26.6	
O=C1/C(=C/c2ccccc2)Oc2cc(O)c(-c3ccc(C(F)(F)F)cc3)cc21	30.9	Activity [3]: Active
COc1cc2c(cc1-c1ccc(C(F)(F)F)cc1)C(=O)CO2	21.2	
COc1ccc(COc2cc3c(cc2-c2ccc(F)cc2)C(=O)CO3)cc1	24.9	
COc1cc2c(cc1-c1ccc(F)cc1)C(=O)CO2	9.88	inhibition [4]: Active; inhibition [5]: Active; inhibition [6]: Active; Activity [3]: Active
O=C1/C(=C/c2ccccc2)Oc2cc(O)ccc21	> 100	
COc1cc2c(cc1-c1ccc(F)cc1)C(=O)/C(=C/c1ccccc1)O2	> 100	
COc1ccc(COc2cc3c(cc2-c2ccccc2)C(=O)CO3)cc1	10.6	Activity [3]: inactive
COc1ccc(COc2ccc3c(c2)O/C(=C\c2ccccc2)C3=O)cc1	19.8	
O=C1c2ccc(O)cc2OC1Cc1ccc(O)c(O)c1 (stereo unspecified)	63.4	
O=C1/C(=C/c2ccccc2O)Oc2cc(O)ccc21	93	
